This is an account of results in ChEMBL document CHEMBL1147199, “Exploration of the correlation between the structure, hemolytic activity, and cytotoxicity of steroid saponins” (Bioorg Med Chem, 2007).

What all share (format): cell-based, Erythrocyte
Data set [1] can be described thus: Cytotoxicity against human erythrocytes assessed as hemolytic activity after 60 mins. To be noted: read-out: HD50.
Data set [2] is described as follows: Cytotoxicity against human erythrocytes assessed as hemolytic activity at 75 ug/ml after 60 mins.
The nature of data set [3]: Cytotoxicity against human erythrocytes assessed as hemolytic activity at 50 ug/ml after 60 mins. To be noted: read-out: Activity.
Data set [4] in a line: Cytotoxicity against human erythrocytes assessed as hemolytic activity at 30 ug/ml after 60 mins. The settings on record: read-out: Activity.
Data set [5] is described as follows: Cytotoxicity against human erythrocytes assessed as hemolytic activity at 100 ug/ml after 60 mins. The settings on record: for Activity: erythrocyte, 1 h.
Data set [6] can be described thus: Cytotoxicity against human erythrocytes assessed as hemolytic activity at 40 ug/ml after 60 mins. To be noted: read-out: Activity.

In the case of `C[C@@H]1CC[C@@]2(OC1)O[C@H]1C[C@H]3[C@@H]4CC=C5C[C@@H](O[C@@H]6O[C@H](CO[C@@H]7O[C@@H](C)[C@H](O)[C@@H](O)[C@H]7O)[C@@H](O)[C@H](O)[C@H]6O)CC[C@]5(C)[C@H]4CC[C@]3(C)[C@H]1[C@@H]2C`, the HC50 at 1 h in data set [1] was determined as 28.6 µM.
Consider `CC(=O)OC[C@H]1O[C@@H](O[C@H]2CC[C@@]3(C)C(=CC[C@H]4[C@@H]5C[C@@H]6O[C@]7(CC[C@@H](C)CO7)[C@@H](C)[C@@H]6[C@@]5(C)CC[C@@H]43)C2)[C@H](O[C@@H]2O[C@@H](C)[C@H](OC(C)=O)[C@@H](O)[C@H]2O)[C@@H](O)[C@@H]1O`, for which, in data set [1], the HC50 at 1 h is more than 75 µM. In addition, the hemolysis % in data set [2] (erythrocyte) is on record as 8%.
As to `CC(=O)O[C@@H]1[C@@H](O)[C@@H](O)[C@H](OC[C@H]2O[C@@H](O[C@H]3CC[C@@]4(C)C(=CC[C@H]5[C@@H]6C[C@@H]7O[C@]8(CC[C@@H](C)CO8)[C@@H](C)[C@@H]7[C@@]6(C)CC[C@@H]54)C3)[C@H](O)[C@@H](O)[C@@H]2O)O[C@H]1C`, the hemolysis at 1 h, 50 ug/ml in data set [3] stood at 12%. Moreover, the HC50 at 1 h in data set [1] is more than 50 µM.
With `CC(=O)O[C@H]1[C@H](O)[C@H](O)[C@@H](O[C@H]2[C@H](O)[C@@H](O[C@H]3O[C@H](C)[C@@H](O)[C@H](O)[C@@H]3O)[C@H](O[C@H]3CC[C@@]4(C)C(=CC[C@H]5[C@@H]6C[C@@H]7O[C@]8(CC[C@@H](C)CO8)[C@@H](C)[C@@H]7[C@@]6(C)CC[C@@H]54)C3)O[C@@H]2CO)O[C@@H]1C`, the HC50 at 1 h in data set [1] worked out at 3.2 µM.
Turning to `CC(=O)OC[C@H]1O[C@@H](O[C@H]2CC[C@@]3(C)C(=CC[C@H]4[C@@H]5C[C@@H]6O[C@]7(CC[C@@H](C)CO7)[C@@H](C)[C@@H]6[C@@]5(C)CC[C@@H]43)C2)[C@H](O[C@@H]2O[C@@H](C)[C@H](O)[C@@H](O)[C@H]2O)[C@@H](O)[C@@H]1O`, the HC50 at 1 h in data set [1] is more than 75 µM. Moreover, in data set [2] (human, human erythrocytes, read-out: Activity), the hemolysis at 1 h, 75 ug/ml is 29%.
For `CC(=O)O[C@@H]1[C@@H](O)[C@@H](O)[C@H](O[C@H]2[C@H](O)[C@@H](O)[C@H](O[C@H]3CC[C@@]4(C)C(=CC[C@H]5[C@@H]6C[C@@H]7O[C@]8(CC[C@@H](C)CO8)[C@@H](C)[C@@H]7[C@@]6(C)CC[C@@H]54)C3)O[C@@H]2CO)O[C@H]1C`, the HC50 at 1 h in data set [1] came out at 29.3 µM.
As to `CC(=O)O[C@H]1C[C@@H]2[C@H](CC[C@]3(C)[C@@H]4[C@H](C[C@@H]23)O[C@]2(CC[C@@H](C)CO2)[C@H]4C)[C@@]2(C)C[C@@H](O)[C@H](O[C@@H]3O[C@H](CO)[C@@H](O[C@H]4O[C@H](C)[C@@H](O)[C@H](O)[C@@H]4O)[C@H](O)[C@H]3O[C@H]3O[C@H](C)[C@@H](O)[C@H](O)[C@@H]3O)C[C@H]12`, the hemolysis at 1 h, 30 ug/ml in data set [4] amounted to 34%. Further, the HC50 at 1 h in data set [1] was more than 30 µM.
Consider `CCCCCCCCCCCCCCCC(=O)O[C@H]1C[C@@H]2[C@H](CC[C@]3(C)[C@@H]4[C@H](C[C@@H]23)O[C@]2(CC[C@@H](C)CO2)[C@H]4C)[C@@]2(C)C[C@@H](O)[C@H](O[C@@H]3O[C@H](CO)[C@@H](O[C@H]4O[C@H](C)[C@@H](O)[C@H](O)[C@@H]4O)[C@H](O)[C@H]3O[C@H]3O[C@H](C)[C@@H](O)[C@H](O)[C@@H]3O)C[C@H]12`, for which the Activity entry in data set [5] was “Not Active”. Besides, in data set [1], the HC50 at 1 h is more than 100 µM.
Take `C[C@@H]1CC[C@@]2(OC1)O[C@H]1C[C@H]3[C@@H]4CC=C5C[C@@H](O[C@@H]6O[C@H](CO)[C@@H](O[C@@H]7O[C@@H](C)[C@H](O)[C@@H](O)[C@H]7O)[C@H](O)[C@H]6O)CC[C@]5(C)[C@H]4CC[C@]3(C)[C@H]1[C@@H]2C`: the HC50 at 1 h in data set [1] was found to be 27.3 µM.
On to `CCCCCCCCCCCC(=O)O[C@H]1C[C@@H]2[C@H](CC[C@]3(C)[C@@H]4[C@H](C[C@@H]23)O[C@]2(CC[C@@H](C)CO2)[C@H]4C)[C@@]2(C)C[C@@H](O)[C@H](O[C@@H]3O[C@H](CO)[C@@H](O[C@H]4O[C@H](C)[C@@H](O)[C@H](O)[C@@H]4O)[C@H](O)[C@H]3O[C@H]3O[C@H](C)[C@@H](O)[C@H](O)[C@@H]3O)C[C@H]12`, for which the hemolysis at 1 h, 100 ug/ml in data set [5] (human erythrocytes, read-out: Activity) is 8.5%. The HC50 at 1 h in data set [1] is more than 100 µM.
Regarding `CO[C@]1(CCC(C)CO[C@@H]2O[C@H](CO)[C@@H](O)[C@H](O)[C@H]2O)O[C@H]2C[C@H]3[C@@H]4CC=C5C[C@@H](O[C@@H]6O[C@H](CO)[C@@H](O[C@H]7O[C@H](C)[C@@H](O)[C@H](O)[C@@H]7O)[C@H](O)[C@H]6O[C@H]6O[C@H](C)[C@@H](O)[C@H](O)[C@@H]6O)[C@H](O)C[C@]5(C)[C@H]4CC[C@]3(C)[C@H]2[C@@H]1C` (stereo partly drawn), the Activity result in data set [5] is “Not Active”. Moreover, the HC50 at 1 h in data set [1] is more than 100 µM.
On the same counts, the results for `CO[C@]1(CCC(C)CS[C@@H]2O[C@H](CO)[C@@H](O)[C@H](O)[C@H]2O)O[C@H]2C[C@H]3[C@@H]4CC=C5C[C@@H](O[C@@H]6O[C@H](CO)[C@@H](O[C@H]7O[C@H](C)[C@@H](O)[C@H](O)[C@@H]7O)[C@H](O)[C@H]6O[C@H]6O[C@H](C)[C@@H](O)[C@H](O)[C@@H]6O)[C@H](O)C[C@]5(C)[C@H]4CC[C@]3(C)[C@H]2[C@@H]1C` (stereo partly drawn) are “Not Active” and more than 100 µM.
With `C[C@@H]1CC[C@@]2(OC1)O[C@H]1C[C@H]3[C@@H]4CC=C5C[C@@H](O[C@@H]6O[C@H](CO)[C@@H](O[C@@H]7O[C@@H](C)[C@H](O)[C@@H](O)[C@H]7O)[C@H](O)[C@H]6O[C@@H]6O[C@@H](C)[C@H](O)[C@@H](O)[C@H]6O)CC[C@]5(C)[C@H]4CC[C@]3(C)[C@H]1[C@@H]2C` [DIOSCIN], in data set [1], the HC50 at 1 h amounted to 6.8 µM.
Take `C[C@@H]1CC[C@@]2(OC1)O[C@H]1C[C@H]3[C@@H]4CC=C5C[C@@H](O[C@@H]6O[C@H](CO)[C@@H](O)[C@H](O)[C@H]6O)CC[C@]5(C)[C@H]4CC[C@]3(C)[C@H]1[C@@H]2C` [DISOGLUSIDE]: in data set [5], the Activity result is recorded as “Not Active”. Besides, in data set [1], the HC50 at 1 h is more than 100 µM.
As for `C[C@@H]1CC[C@@]2(OC1)O[C@H]1C[C@H]3[C@@H]4CC=C5C[C@@H](O[C@@H]6O[C@H](CO)[C@@H](O)[C@H](O)[C@H]6O[C@@H]6O[C@@H](C)[C@H](O)[C@@H](O)[C@H]6O)CC[C@]5(C)[C@H]4CC[C@]3(C)[C@H]1[C@@H]2C` [OPHIOPOGONIN C], in data set [1], the HC50 at 1 h worked out at 21.6 µM.
For `C[C@@H]1CC[C@@]2(OC1)O[C@H]1C[C@H]3[C@@H]4CC=C5C[C@@H](O[C@@H]6O[C@H](CO)[C@@H](O)[C@H](O[C@@H]7O[C@@H](C)[C@H](O)[C@@H](O)[C@H]7O)[C@H]6O)CC[C@]5(C)[C@H]4CC[C@]3(C)[C@H]1[C@@H]2C` [POLYPHILLIN C], the HC50 at 1 h in data set [1] was more than 40 µM. Besides, in data set [6], the hemolysis at 1 h, 40 ug/ml was 15%.
Turning to `C[C@@H]1CC[C@@]2(OC1)O[C@H]1C[C@H]3[C@@H]4CC=C5C[C@@H](O[C@@H]6O[C@H](CO)[C@@H](O[C@H]7O[C@H](CO)[C@@H](O)[C@@H]7O)[C@H](O)[C@H]6O[C@H]6O[C@H](C)[C@@H](O)[C@H](O)[C@@H]6O)CC[C@]5(C)[C@H]4CC[C@]3(C)[C@H]1[C@@H]2C` [POLYPHILLIN D], the HC50 at 1 h in data set [1] was found to be 3.9 µM.
The same measure, in the same setting: the value for `C[C@@H]1CC[C@@]2(OC1)O[C@H]1C[C@H]3[C@@H]4CC=C5C[C@@H](O[C@@H]6O[C@H](CO)[C@@H](O)[C@H](O[C@@H]7O[C@@H](C)[C@H](O)[C@@H](O)[C@H]7O)[C@H]6O[C@H]6O[C@H](C)[C@@H](O)[C@H](O)[C@@H]6O)CC[C@]5(C)[C@H]4CC[C@]3(C)[C@H]1[C@@H]2C` [TACCAOSIDE] was 6.8 µM.
